# Data: PubChem BioAssay (NCI)
# Where “and” joins values, the source holds several entries; their conditions need not be identical. Equal entries are not always repeated.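 Step 1: Grow cells in 96-well plates. Step 2: Expose to compound for 48 hours at 5 concentrations. Step 3: Interpolate endpoints linearly; if unreached, use highest concentration. At the GI50, growth is halved. The concentration for full growth arrest is given as TGI.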
# Key:
# Test in all cases: NCI anticancer screen, dose series, 48 h
# HT29 colon = test system: HT29 colon
# MDA-MB-231 breast = test system: MDA-MB-231 breast
# NCI-H226 lung = test system: NCI-H226 lung
# U251 CNS = test system: U251 CNS
# SN12C renal = test system: SN12C renal
# COLO 205 colon = test system: COLO 205 colon
# MDA-MB-435 = test system: MDA-MB-435
# HCT-116 colon = test system: HCT-116 colon
# SK-MEL-2 melanoma = test system: SK-MEL-2 melanoma
# NCI/ADR-RES ovarian = test system: NCI/ADR-RES ovarian
SMILES,TGI (HT29 colon),TGI (MDA-MB-231 breast),TGI (NCI-H226 lung),TGI (U251 CNS),TGI (SN12C renal),TGI (COLO 205 colon),TGI (MDA-MB-435),TGI (HCT-116 colon),TGI (SK-MEL-2 melanoma),TGI (NCI/ADR-RES ovarian),GI50 (HT29 colon),GI50 (MDA-MB-231 breast),GI50 (NCI-H226 lung),GI50 (U251 CNS),GI50 (SN12C renal),GI50 (COLO 205 colon),GI50 (MDA-MB-435),GI50 (NCI/ADR-RES ovarian),GI50 (HCT-116 colon),GI50 (SK-MEL-2 melanoma)
CN1Cc2cc(O)c(O)cc2C(O)C1 (centres undefined),> 100 µM,> 100 µM,> 100 µM,> 100 µM,> 100 µM,> 100 µM,> 100 µM,> 100 µM,> 100 µM,> 100 µM,–,–,–,–,–,–,–,–,–,–
CC(C(=O)c1ccncc1)c1ccccn1 (centres undefined),> 100 µM,> 100 µM,> 100 µM,> 100 µM,> 100 µM,> 100 µM,> 100 µM,> 100 µM,> 100 µM,> 100 µM,–,–,–,–,–,–,–,–,–,–
COC(=O)C(Cc1ccc(N(C)C)cc1)(NC(=O)c1ccccc1)P(=O)(OC)OC (centres undefined),> 100 µM,–,> 100 µM,> 100 µM,> 100 µM,> 100 µM,–,> 100 µM,> 100 µM,–,–,–,–,–,–,–,–,–,–,–
S=c1nc(N/N=C/c2cccs2)c2cn[nH]c2[nH]1,> 100 µM,> 100 µM,> 100 µM,77.6 µM,> 100 µM,> 100 µM,51.9 µM,> 100 µM,> 100 µM,81.7 µM,–,–,–,–,–,–,–,–,–,–
COc1ccc(NC(C(N)=O)c2cc3cc(Br)ccc3nc2Cl)cc1 (centres undefined),> 100 µM,> 100 µM,> 100 µM,–,> 100 µM,> 100 µM,56.5 µM,> 100 µM,> 100 µM,> 100 µM,–,–,–,–,–,–,–,–,–,–
COC1=C(C)C(=O)C2=C(C1=O)C1C3CC4=C(C(=O)C(OC)=C(C)C4=O)C(CNC(=O)C(C)O)N3C(C#N)C(C2)N1C (centres undefined),< 0.01 µM,0.0178 µM,0.109 µM,–,1.72 µM,< 0.01 µM,< 0.01 µM,2.18 µM,< 0.01 µM,8.72 µM,–,–,–,–,–,–,–,–,–,–
C=CC(C)C1(CCCOCc2ccccc2)C(=S)N2CCC3(CC24CCCC14)OCCO3 (centres undefined),> 100 µM,–,> 100 µM,> 100 µM,> 100 µM,> 100 µM,–,–,> 100 µM,–,–,–,–,–,–,–,–,–,–,–
COC1=CC(=O)C=C(OC)C1=O,65.3 µM,–,30.8 µM,64.5 µM,35.1 µM,40.3 µM,–,15.1 µM,17.7 µM,10.1 µM,–,–,–,–,–,–,–,–,–,–
COC(=O)CNC(=O)CCC(C)[C@H]1CCC2C3C(C[C@H](OC(C)=O)[C@@]21C)[C@@]1(C)CCC2(C[C@H]1C[C@H]3OC(C)=O)OOC1(CC[C@]3(C)C4C[C@H](OC(C)=O)[C@@]5(C)C(CC[C@@H]5C(C)CCC(=O)NCC(=O)OC)C4[C@H](OC(C)=O)C[C@@H]3C1)OO2 (some centres undefined),2.37 µM,5.96 µM,3.46 µM,14 µM,–,–,> 50 µM,9.1 µM,1.66 µM,> 50 µM,–,–,–,–,–,–,–,–,–,–
COC(=O)[C@]1(c2ccc(N(C)C)cc2OC)C[C@@H]2CCCN(CCc3c1[nH]c1ccccc31)C2,32.8 µM,–,37.6 µM,36 µM,41 µM,27.3 µM,–,55.5 µM,36.2 µM,35.8 µM,–,–,–,–,–,–,–,–,–,–
COc1cc2c(cc1Oc1c(Oc3c(O)c(OC)cc4c3C(CC(C)C)N(C)CC4)c(OC)cc3c1C(CC(C)C)N(C)CC3)C(CC(C)C)N(C)CC2 (centres undefined),5.61 µM,–,2.5 µM,6.22 µM,3.53 µM,0.837 µM,–,3.85 µM,3.67 µM,14.1 µM,–,–,–,–,–,–,–,–,–,–
O=C(Nc1ccccc1Cl)c1ccc([N+](=O)[O-])cc1,> 100 µM,–,> 100 µM,> 100 µM,> 100 µM,> 100 µM,–,–,> 100 µM,–,–,–,–,–,–,–,–,–,–,–
COC(=O)c1cn(CC(O)CCl)nn1 (centres undefined),> 100 µM,> 100 µM,–,> 100 µM,> 100 µM,> 100 µM,> 100 µM,–,> 100 µM,> 100 µM,–,–,–,–,–,–,–,–,–,–
CCCCCCCCCCCCCC[n+]1ccc(C(N)=O)cc1,4.13 µM,4.6 µM,4.01 µM,1.87 µM,10.6 µM,2.69 µM,4.64 µM,–,–,50.2 µM,1.11 µM,1.85 µM,1.52 µM,0.538 µM,3.2 µM,1.27 µM,1.87 µM,19 µM,–,–
CCOc1ccc(C(C)c2cc3c(cc2OC)OCO3)cc1 (centres undefined),12.4 µM,–,0.752 µM,> 100 µM,40.7 µM,–,–,4.82 µM,–,–,–,–,–,–,–,–,–,–,–,–
CN(O)C(=O)CCCC(=O)NCC(C)(C)CNC(=O)CCCC(=O)N(C)O,> 100 µM,> 100 µM,> 100 µM,> 100 µM,–,> 100 µM,> 100 µM,–,> 100 µM,> 100 µM,–,–,–,–,–,–,–,–,–,–
Cc1cc(OCCOCCC(F)(F)P(=O)(O)O)ccc1CCc1cnc2c(N)nc3cc(CCC(=O)O)ccc3c2c1,> 100 µM,> 100 µM,> 100 µM,> 100 µM,> 100 µM,> 100 µM,> 100 µM,> 100 µM,> 100 µM,> 100 µM,> 100 µM,> 100 µM,> 100 µM,> 100 µM,> 100 µM,> 100 µM,> 100 µM,> 100 µM,> 100 µM,> 100 µM
O=C(O)/C(=C\c1ccc(O)cc1)c1cccc2ccccc12,> 100 µM,> 100 µM,> 100 µM,> 100 µM,> 100 µM,–,> 100 µM,> 100 µM,> 100 µM,> 100 µM,–,–,–,–,–,–,–,–,–,–
O=P(Nc1ccccc1)(Oc1ccccc1)N(CCCl)CCCl (centres undefined),> 100 µM,–,> 100 µM,> 100 µM,> 100 µM,> 100 µM,–,> 100 µM,> 100 µM,–,–,–,–,–,–,–,–,–,–,–
COc1cc2cc(C(=O)N3CC(CCl)c4ccc(N(C)C)cc43)[nH]c2c(OC)c1OC (centres undefined),–,0.627 µM,0.428 µM,4.05 µM,0.531 µM,0.213 µM,0.336 µM,–,0.128 µM,0.272 µM,–,–,–,–,–,–,–,–,–,–
Cc1ccc(N=Nc2c(O)ccc3cc(S(=O)(=O)O)ccc23)cc1,> 100 µM,> 100 µM and 45.7 µM,> 100 µM,> 100 µM,> 100 µM,> 100 µM,> 100 µM,> 100 µM,> 100 µM,> 100 µM,–,–,–,–,–,–,–,–,–,–
Cc1[nH]c2ccccc2c1/C=N/NC(=O)c1cccc(I)c1,63.3 µM,57.7 µM,–,57 µM,> 100 µM,27 µM,35.7 µM,51.4 µM,39.2 µM,56 µM,–,–,–,–,–,–,–,–,–,–
